# Where a name gives a salt, the structure may show the parent alone.
# Assays:
# [1] = target: recombinant BACE1 protein (Homo sapiens, UniProt P56817); test: Biochemical FRET based assay; conditions: recombinant BACE1 1 μg/ml, 120 min, pH 5.0; for IC50: read-out: Biochemical FRET based assay pIC50 (converted)
# From the text: Biochemical FRET Based Assay
# This assay is a Fluorescence Resonance Energy Transfer Assay (FRET) based assay. The substrate for this assay is an APP derived 13 amino acids peptide that contains the ‘Swedish’ Lys-Met/Asn-Leu mutation of the amyloid precursor protein (APP) β-secretase cleavage site. This substrate also contains two fluorophores: (7-methoxycoumarin-4-yl)acetic acid (Mca) is a fluorescent donor with excitation wavelength at 320 nm and emission at 405 nm and 2,4-Dinitrophenyl (Dnp) is a proprietary quencher acceptor. […] Upon cleavage by BACE1, the fluorophore Mca is separated from the quenching group Dnp, restoring the full fluorescence yield of the donor. The increase in fluorescence is linearly related to the rate of proteolysis (Koike H et al. J. Biochem. 1999, 126, 235-242). Briefly in a 384-well format recombinant BACE1 protein in a final concentration of 1 μg/ml is incubated for 120 min at room temperature with 10 μm substrate in incubation buffer (40 mM Citrate buffer pH 5.0, 0.04% PEG, 4% DMSO) in the absence or presence of compound. Next the amount of proteolysis is directly measured by fluorescence measurement at T=0 and T=120 (excitation at 320 nm and emission at 405 nm).
# [2] = system: Aβ42 produced and secreted into the medium of human neuroblastoma SKNBE2 cells; test: Cellular αlisa assay in SKNBE2 cells, Aβ42; assay type: cell-based; conditions: SKNBE2 cells expressing hAPP695, 18 hours incubation; for IC50: Homo sapiens, SKNBE2, 18 h, read-out: Cellular αlisa assay in SKNBE2 cells Aβ42 pIC50 (converted)
# Experimental: (§1) Cellular αlisa Assay in SKNBE2 Cells
# (§2) In two αlisa assays the levels of Aβtotal and Aβ42 produced and secreted into the medium of human neuroblastoma SKNBE2 cells are quantified. The assay is based on the human neuroblastoma SKNBE2 expressing the wild type Amyloid Precursor Protein (hAPP695). The compounds are diluted and added to these cells, incubated for 18 hours and then measurements of Aβ42 and Aβtotal are taken. Aβtotal and Aβ42 are measured by sandwich αlisa. αlisa is a sandwich assay using biotinylated antibody AbN/25 attached to streptavidin coated beads and antibody Ab4G8 or cAb42/26 conjugated acceptor beads for the detection of Aβtotal and Aβ42 respectively. In the presence of Aβtotal or Aβ42, the beads come into close proximity. The excitation of the Donor beads provokes the release of singlet oxygen molecules that triggers a cascade of energy transfer in the Acceptor beads, resulting in light emission. Light emission is measured after 1 hour incubation (excitation at […] and emission at 615 nm).
# (§3) A best-fit curve is fitted by a minimum sum of squares method to the plot of % Controlmin versus compound concentration.
# [3] = system: Aβtotal produced and secreted into the medium of human neuroblastoma SKNBE2 cells; test: Cellular αlisa assay in SKNBE2 cells, Aβtotal; assay type: cell-based; conditions: SKNBE2 cells expressing hAPP695, 18 hours incubation; for IC50: Homo sapiens, SKNBE2, 18 h, read-out: Cellular αlisa assay in SKNBE2 cells Aβtotal pIC50 (converted)
# Experimental: as §1, §2, §3
# Sequence of recombinant BACE1 protein (P56817 46-501): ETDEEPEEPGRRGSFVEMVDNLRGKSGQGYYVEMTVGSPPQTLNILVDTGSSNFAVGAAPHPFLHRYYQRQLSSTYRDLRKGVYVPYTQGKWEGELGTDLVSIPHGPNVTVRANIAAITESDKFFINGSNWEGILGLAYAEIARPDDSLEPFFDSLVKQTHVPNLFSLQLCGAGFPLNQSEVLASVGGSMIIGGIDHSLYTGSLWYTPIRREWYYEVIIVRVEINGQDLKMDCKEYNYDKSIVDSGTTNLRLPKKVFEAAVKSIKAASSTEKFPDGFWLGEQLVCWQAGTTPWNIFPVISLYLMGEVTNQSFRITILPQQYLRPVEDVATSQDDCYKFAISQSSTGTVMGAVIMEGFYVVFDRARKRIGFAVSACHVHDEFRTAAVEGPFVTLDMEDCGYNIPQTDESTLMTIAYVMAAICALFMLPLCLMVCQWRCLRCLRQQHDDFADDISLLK
SMILES,IC50 [1],IC50 [2],IC50 [3],Biochemical FRET based assay pIC50 [1],Cellular αlisa assay in SKNBE2 cells Aβ42 pIC50 [2],Cellular αlisa assay in SKNBE2 cells Aβtotal pIC50 [3]
"CC1(c2cccc(NC(=O)c3ccc(Cl)cn3)c2)Cn2nccc2C(N)=N1 (racemic) [Compound 2, rac-5-chloro-pyridine-2-carboxylic acid [3-(4-amino-6-methyl-6,7-dihydro-pyrazolo[1,5-a]pyrazin-6-yl)-phenyl]-amide]",83.2 nM,3.24 nM,2.45 nM,–,–,–
"CC1(c2cccc(NC(=O)c3ncc(Cl)cc3Cl)c2)Cn2nccc2C(N)=N1 (racemic) [Compound 3, rac-3,5-dichloro-pyridine-2-carboxylic acid [3-(4-amino-6-methyl-6,7-dihydro-pyrazolo[1,5-a]pyrazin-6-yl)-phenyl]-amide]",46.8 nM,3.24 nM,3.39 nM,–,–,–
"CC1(c2cccc(NC(=O)c3ccc(C#N)cn3)c2)Cn2nccc2C(N)=N1 (racemic) [Compound 6, rac-5-cyano-pyridine-2-carboxylic acid [3-(4-amino-6-methyl-6,7-dihydro-pyrazolo[1,5-a]pyrazin-6-yl)-phenyl]-amide]",–,5.75 nM,5.13 nM,–,–,–
"CC1(c2cccc(NC(=O)c3ccc(C#N)cn3)c2)Cn2ncc(Br)c2C(N)=N1 (racemic) [Compound 9, rac-5-cyano-pyridine-2-carboxylic acid [3-(4-amino-3-bromo-6-methyl-6,7-dihydro-pyrazolo[1,5-a]pyrazin-6-yl)-phenyl]-amide trifluorocetate salt]",7940 nM,1000 nM,871 nM,–,–,–
"CC1(c2cccc(NC(=O)c3ncc(Cl)cc3Cl)c2)Cn2nc(C(F)(F)F)cc2C(N)=N1 (racemic) [Compound 10, rac-3,5-dichloro-pyridine-2-carboxylic acid [3-(4-amino-6-methyl-2-trifluoromethyl-6,7-dihydro-pyrazolo[1,5-a]pyrazin-6-yl)-phenyl]-amide]",63.1 nM,16.6 nM,15.5 nM,–,–,–
"CC1(c2cc(NC(=O)c3ncc(Cl)cc3Cl)ccc2F)Cn2nccc2C(N)=N1 (racemic) [Compound 14, rac-3,5-dichloro-pyridine-2-carboxylic acid [3-(4-amino-6-methyl-6,7-dihydro-pyrazolo[1,5-a]pyrazin-6-yl)-4-fluoro-phenyl]-amide]",35.5 nM,1.35 nM,1.17 nM,–,–,–
"COc1cnc(C(=O)Nc2ccc(F)c(C3(C(F)F)Cn4nccc4C(N)=N3)c2)cn1 (racemic) [Compound 17, rac-5-methoxy-pyrazine-2-carboxylic acid [3-(4-amino-6-difluoromethyl-6,7-dihydro-pyrazolo[1,5-a]pyrazin-6-yl)-4-fluoro-phenyl]-amide]",57.5 nM,39.8 nM,33.1 nM,–,–,–
"NC1=NC(c2cc(NC(=O)c3ccc(F)cn3)ccc2F)(C(F)F)Cn2nccc21 (racemic) [Compound 20, rac-5-fluoro-pyridine-2-carboxylic acid [3-(4-amino-6-difluoromethyl-6,7-dihydro-pyrazolo[1,5-a]pyrazin-6-yl)-4-fluoro-phenyl]-amide]",66.1 nM,85.1 nM,66.1 nM,–,–,–
COc1cnc(C(=O)Nc2cccc(C3(C)Cn4nc(C(F)(F)F)cc4C(N)=N3)c2)cn1 (racemic) [Compound 30],–,–,–,6.77,7.43,7.45
Cc1nn2c(c1F)C(N)=NC(C)(c1cc(NC(=O)c3ccc(F)cn3)ccc1F)C2 (racemic) [Compound 41],–,–,–,6.93,7.69,7.67
"CC1(c2cccc(NC(=O)c3ncc(Cl)cc3Cl)c2)Cn2nccc2C(N)=N1 (single isomer, unassigned) [Compound 4, (R*)-3,5-dichloro-pyridine-2-carboxylic acid [3-(4-amino-6-methyl-6,7-dihydro-pyrazolo[1,5-a]pyrazin-6-yl)-phenyl]-amide]",21400 nM,–,–,–,5.84,5.84
"CC1(c2cccc(NC(=O)c3ncc(Cl)cc3Cl)c2)Cn2nccc2C(N)=N1 (single isomer, unassigned) [Compound 5, (S*)-3,5-dichloro-pyridine-2-carboxylic acid [3-(4-amino-6-methyl-6,7-dihydro-pyrazolo[1,5-a]pyrazin-6-yl)-phenyl]-amide]",37.2 nM,–,–,–,8.59,8.55
"CC1(c2cccc(NC(=O)c3ccc(C#N)cn3)c2)Cn2nccc2C(N)=N1 (single isomer, unassigned) [Compound 8, (S*)-5-cyano-pyridine-2-carboxylic acid [3-(4-amino-6-methyl-6,7-dihydro-pyrazolo[1,5-a]pyrazin-6-yl)-phenyl]-amide]",–,–,–,–,6.13,6.13
"CC1(c2cccc(NC(=O)c3ncc(Cl)cc3Cl)c2)Cn2nc(C(F)(F)F)cc2C(N)=N1 (single isomer, unassigned) [Compound 12, (S*)-3,5-dichloro-pyridine-2-carboxylic acid [3-(4-amino-6-methyl-2-trifluoromethyl-6,7-dihydro-pyrazolo[1,5-a]pyrazin-6-yl)-phenyl]-amide]",8710 nM,–,–,–,5.64,5.75
"CC1(c2cc(NC(=O)c3ncc(Cl)cc3Cl)ccc2F)Cn2nccc2C(N)=N1 (single isomer, unassigned) [Compound 15, (R*)-3,5-dichloro-pyridine-2-carboxylic acid [3-(4-amino-6-methyl-6,7-dihydro-pyrazolo[1,5-a]pyrazin-6-yl)-4-fluoro-phenyl]-amide]",18.6 nM,–,–,–,9.33,9.37
"CC1(c2cc(NC(=O)c3ncc(Cl)cc3Cl)ccc2F)Cn2nccc2C(N)=N1 (single isomer, unassigned) [Compound 16, (S*)-3,5-dichloro-pyridine-2-carboxylic acid [3-(4-amino-6-methyl-6,7-dihydro-pyrazolo[1,5-a]pyrazin-6-yl)-4-fluoro-phenyl]-amide]",1050 nM,–,–,–,7.66,7.74
"COc1cnc(C(=O)Nc2ccc(F)c(C3(C(F)F)Cn4nccc4C(N)=N3)c2)cn1 (single isomer, unassigned) [Compound 18, (R*)-5-methoxy-pyrazine-2-carboxylic acid [3-(4-amino-6-difluoromethyl-6,7-dihydro-pyrazolo[1,5-a]pyrazin-6-yl)-4-fluoro-phenyl]-amide]",22.4 nM,–,–,–,7.52,7.54
"C[C@@]1(c2cc(NC(=O)c3cnn(C(F)F)c3)ccc2F)Cn2nc(C#N)cc2C(N)=N1 [Compound 25, (R)-1-difluoromethyl-1H-pyrazole-4-carboxylic acid [3-(4-amino-2-cyano-6-methyl-6,7-dihydro-pyrazolo[1,5-a]pyrazin-6-yl)-4-fluoro-phenyl]-amide]",–,1.32 nM,1.35 nM,–,–,–

# Source: US9346811B2, “6,7-dihydro-pyrazolo[1,5-a]pyrazin-4-ylamine derivatives useful as inhibitors of beta-secretase (BACE)” (JANSSEN PHARMACEUTICA NV, priority 2011, dated 2016)
